# Results published in patent US20050234046A1 (Kalypsys, Inc., priority 2004, published 2005).
# Assays:
# Assay in all cases: Transient transfection (transactivation) assay in CV-1 cells, GAL4-PPAR chimera, luciferase reporter
# Assay type in all cases: cell-based
# [1] = target: T1, PPAR alpha (Homo sapiens, UniProt Q07869)
# T1 construct: expressed in transfected cells; host or cells: CV-1 cells
# T1 sequence (Q07869 239-466 limits assumed): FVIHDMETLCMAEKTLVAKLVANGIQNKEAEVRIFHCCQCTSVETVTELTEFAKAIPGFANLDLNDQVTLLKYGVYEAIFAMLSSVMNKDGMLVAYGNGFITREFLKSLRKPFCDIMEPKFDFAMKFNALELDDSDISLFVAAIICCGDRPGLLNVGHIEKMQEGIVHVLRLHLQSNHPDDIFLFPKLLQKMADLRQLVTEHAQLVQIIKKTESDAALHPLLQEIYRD
# Text: Compounds may be screened for functional potency in transient transfection assays in CV-1 cells or other cell types for their ability to activate the PPAR subtypes (transactivation assay). A previously established chimeric receptor system was utilized to allow comparison of the relative transcriptional activity of the receptor subtypes on the same synthetic response element and to prevent endogenous receptor activation from complicating the interpretation of results. See, for example; Lehmann, J. M.; Moore, L. B.; Smith-Oliver, T. A; Wilkinson, W. O.; Willson, T. M.; Kliewer, S. A., An antidiabetic thiazolidinedione is a high affinity ligand for peroxisome proliferatur-activated receptor γ (PPARγ), J. Biol. Chem., 1995, 270, 12953-6. The ligand binding domains for murine and human PPAR-alpha, PPAR-gamma, and PPAR-delta are each fused to the yeast transcription factor GAL4 DNA binding domain. CV-1 cells were transiently transfected with expression vectors for the respective PPAR chimera along with a reporter construct containing four or five copies of the GAL4 DNA binding site driving expression of luciferase. After 8-16 h, the cells are replated into multi-well assay plates and the media is exchanged to phenol-red free DME medium supplemented with 5% delipidated calf serum. 4 hours after replating, cells were treated with either compounds or 1% DMSO for 20-24 hours. Luciferase activity was then assayed with Britelite (Perkin Elmer) following the manufacturer's protocol and measured with either the Perkin Elmer Viewlux or Molecular Devices Acquest Xsee, for example, Kliewer, S. A., et. al. Cell 1995, 83, 813-819). Rosiglitazone is used as a positive control in the hPPAR-γ assay. Wy-14643 and GW7647 is used as a positive control in the hPPAR-α assay. GW501516 is used as the positive control in the hPPAR-δ assay.
# Compounds of Examples 1-233 were assayed to measure their biological activity with respect to their EC50 values and efficacy for modulating PPAR-alpha, PPAR-gamma, and PPAR-delta as set forth in Table 3.
# [2] = target: T2, PPAR delta (Homo sapiens, UniProt Q03181)
# T2 construct: expressed in transfected cells; host or cells: CV-1 cells
# T2 sequence (Q03181 211-439 limits assumed): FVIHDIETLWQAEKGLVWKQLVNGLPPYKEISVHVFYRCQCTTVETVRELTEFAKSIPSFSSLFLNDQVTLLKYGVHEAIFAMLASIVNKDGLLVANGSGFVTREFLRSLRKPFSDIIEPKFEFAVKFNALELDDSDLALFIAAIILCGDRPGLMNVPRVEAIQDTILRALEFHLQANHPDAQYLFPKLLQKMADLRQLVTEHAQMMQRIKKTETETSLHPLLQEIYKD
# [3] = target: T3, PPAR gamma (Homo sapiens, UniProt P37231)
# T3 construct: expressed in transfected cells; host or cells: CV-1 cells
# T3 sequence (P37231 238-503 limits assumed): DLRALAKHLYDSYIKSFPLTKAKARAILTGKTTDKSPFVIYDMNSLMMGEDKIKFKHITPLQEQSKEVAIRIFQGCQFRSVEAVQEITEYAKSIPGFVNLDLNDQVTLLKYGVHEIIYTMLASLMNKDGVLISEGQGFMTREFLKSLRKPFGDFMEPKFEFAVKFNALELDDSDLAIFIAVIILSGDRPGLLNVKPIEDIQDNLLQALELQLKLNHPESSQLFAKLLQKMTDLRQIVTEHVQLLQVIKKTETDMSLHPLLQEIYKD
SMILES,EC50 [1] [µM],EC50 [2] [µM],EC50 [3] [µM],PPAR gamma EC50 [3],PPAR delta EC50 [2]
"Cc1ccc(S(=O)(=O)N2CCN(c3nc(Cl)cs3)CC2)cc1CC(=O)O [Example 50, {5-[4-(4-Chloro-thiazol-2-yl)-piperazine-1-sulfonyl]-2-methyl-phenyl}-acetic acid]",> 100,5 to 100,5 to 100,–,–
"COc1ccc(S(=O)(=O)N2CCN(c3ccc(C(F)(F)F)cn3)CC2C)cc1CC(=O)O (stereo not drawn) [Example 77, {2-Methoxy-5-[2-methyl-4-(5-trifluoromethyl-pyridin-2-yl)-piperazine-1-sulfonyl]-phenyl}-acetic acid]",> 100,< 5,5 to 100,–,–
"COc1ccc(N2CCN(S(=O)(=O)c3cc(CC(=O)O)ccc3C)CC2)cc1OC [Example 157, {3-[4-(3,4-Dimethoxy-phenyl)-piperazine-1-sulfonyl]-4-methyl-phenyl}-acetic acid]",> 100,> 100,> 100,–,–
"Cc1ccc(S(=O)(=O)N2CCC(c3nc(C(F)(F)F)cs3)CC2)cc1CC(=O)O [Example 46, {2-Methyl-5-[4-(4-trifluoromethyl-thiazol-2-yl)-piperidine-1-sulfonyl]-phenyl}-acetic acid]",> 100,> 100,5 to 100,–,–
"Cc1ccc(S(=O)(=O)N2CCN(c3ncc(F)cn3)CC2)cc1CC(=O)O [Example 63, {5-[4-(5-Fluoro-pyrimidin-2-yl)-piperazine-1-sulfonyl]-2-methyl-phenyl}-acetic acid]",> 100,< 5,5 to 100,–,–
"Cc1ccc(S(=O)(=O)N2CCN(c3ccc(Cl)cn3)CC2)cc1CC(=O)O [Example 62, {5-[4-(5-Chloro-pyridin-2-yl)-piperazine-1-sulfonyl]-2-methyl-phenyl}-acetic acid]",> 100,< 5,–,B/C,–
"CCC1CN(c2ccc(C(F)(F)F)c(Cl)c2)CCN1S(=O)(=O)c1ccc(C)c(CC(=O)O)c1 (stereo not drawn) [Example 98, {5-[2-Ethyl-4-(3-chloro-4-trifluoromethyl-phenyl)-piperazine-1-sulfonyl]-2-methyl-phenyl}-acetic acid]",< 5,< 5,> 100,–,–
"Cc1ccc(S(=O)(=O)N2CCCN(c3nc4ccccc4o3)CC2)cc1CC(=O)O [Example 26, [5-(4-Benzooxazol-2-yl-[1,4]diazepane-1-sulfonyl)-2-methyl-phenyl]-acetic acid]",> 100,5 to 100,> 100,–,–
"O=C(O)Cc1cccc(S(=O)(=O)N2CCN(c3ccc(Cl)cc3)CC2)c1 [Example 116, {3-[4-(4-Chloro-phenyl)-piperazine-1-sulfonyl]-phenyl}-acetic acid]",> 100,< 5,5 to 100,–,–
"Cc1ccc(S(=O)(=O)N2CCC(c3ccc(C(F)(F)F)cc3)CC2)cc1CC(=O)O [Example 48, {2-Methyl-5-[4-(4-trifluoromethyl-phenyl)-piperidine-1-sulfonyl]-phenyl}-acetic acid]",> 100,–,5 to 100,–,B/C
"C[C@@H]1CN(c2ccc(OC(F)(F)F)cc2)C[C@H](C)N1S(=O)(=O)c1cc(Br)cc(CC(=O)O)c1 [Example 200, {3-Bromo-5-[2,6-dimethyl-4-(4-trifluoromethoxy-phenyl)-piperazine-1-sulfonyl]-phenyl}-acetic acid]",5 to 100,< 5,5 to 100,–,–
Cc1ccc(S(=O)(=O)N2CCN(c3ccc(C(C)C)cc3)CC2)cc1CC(=O)O [Example 31],< 5,< 5,5 to 100,–,–
"Cc1ccc(S(=O)(=O)N2CCN(c3ccc(Cl)c(Cl)c3)C[C@@H]2C)cc1CC(=O)O [Example 101, {5-[4-(3,4-Dichloro-phenyl)-2-(S)-methyl-piperazine-1-sulfonyl]-2-methyl-phenyl}-acetic acid]",5 to 100,< 5,5 to 100,–,–
"COc1ccc(S(=O)(=O)N2[C@H](C)CN(c3ccc(C(F)(F)F)cn3)C[C@@H]2C)cc1CCC(=O)O [Example 194, 3-{5-[2,6-Dimethyl-4-(5-trifluoromethyl-pyridin-2-yl)-piperazine-1-sulfonyl]-2-methoxy-phenyl}-propionic acid]",> 100,< 5,> 100,–,–
"Cc1ccc(S(=O)(=O)N2CCN(c3ccccc3)CC2)cc1CC(=O)O [Example 181, [2-Methyl-5-(4-phenyl-piperazine-1-sulfonyl)-phenyl]-acetic acid]",> 100,5 to 100,5 to 100,–,–
Cc1ccc(S(=O)(=O)N2CCN(c3cnc(Cl)cn3)CC2)cc1CC(=O)O [Example 86],> 100,> 100,> 100,–,–
"Cc1ccc(S(=O)(=O)N2CCCN(c3ccc(C(F)(F)F)cc3)CC2)cc1CC(=O)O [Example 5, {2-Methyl-5-[4-(4-trifluoromethyl-phenyl)-[1,4]diazepane-1-sulfonyl]-phenyl}-acetic acid]",> 100,< 5,5 to 100,–,–
"Cc1cc(CC(=O)O)cc(S(=O)(=O)N2CCN(c3ccc(C)c(C)c3)CC2)c1 [Example 169, {3-[4-(3,4-Dimethyl-phenyl)-piperazine-1-sulfonyl]-5-methyl-phenyl}-acetic acid]",> 100,5 to 100,5 to 100,–,–
"O=C(O)Cc1cccc(S(=O)(=O)N2CCN(c3ccc(C(F)(F)F)cc3[N+](=O)[O-])CC2)c1 [Example 128, {3-[4-(2-Nitro-4-trifluoromethyl-phenyl)-piperazine-1-sulfonyl]-phenyl}-acetic acid]",5 to 100,5 to 100,5 to 100,–,–
"O=C(O)Cc1cccc(S(=O)(=O)N2CCN(Cc3ccc(F)cc3)CC2)c1 [Example 123, {3-[4-(4-Fluoro-benzyl)-piperazine-1-sulfonyl]-phenyl}-acetic acid]",> 100,5 to 100,5 to 100,–,–
"O=C(O)Cc1cccc(S(=O)(=O)N2CCN(C/C=C/c3ccccc3)CC2)c1 [Example 143, {3-[4-(3-Phenyl-allyl)-piperazine-1-sulfonyl]-phenyl}-acetic acid]",5 to 100,5 to 100,> 100,–,–
"Cc1cc(CC(=O)O)cc(S(=O)(=O)N2CCN(c3ccc(F)cc3)CC2)c1 [Example 173, {3-[4-(4-Fluoro-phenyl)-piperazine-1-sulfonyl]-5-methyl-phenyl}-acetic acid]",> 100,5 to 100,> 100,–,–
"Cc1ccc(S(=O)(=O)N2CCN(c3ccc(C(C)(C)C)cc3)CC2)cc1CC(=O)O [Example 32, {5-[4-(4-tert-Butyl-phenyl)-piperazine-1-sulfonyl]-2-methyl-phenyl}-acetic acid]",< 5,5 to 100,5 to 100,–,–
"Cc1ccc(S(=O)(=O)N2CCN(c3nc(C(F)(F)F)cs3)CC2)cc1CC(=O)O [Example 53, {2-Methyl-5-[4-(4-trifluoromethyl-thiazol-2-yl)-piperazine-1-sulfonyl]-phenyl}-acetic acid]",> 100,5 to 100,5 to 100,–,–
"Cc1ccc(S(=O)(=O)N2CCCN(c3ccc(C(F)(F)F)cn3)CC2)cc1CC(=O)O [Example 8, {2-Methyl-5-[4-(5-trifluoromethyl-pyridin-2-yl)-[1,4]diazepane-1-sulfonyl]-phenyl}-acetic acid]",5 to 100,< 5,< 5,–,–
